Reference: patent publication US11090304B2 (Amgen Inc., priority 2018, dated 2021)

What was measured:
[1] = molecular target: GDP-bound KRAS protein (aa 1-169), containing both G12C and C118A amino acid substitutions (Homo sapiens, UniProt P01116, C118A/G12C); assay: Coupled nucleotide exchange assay (SOS-mediated, AlphaScreen); assay type: biochemical; settings: 5 min compound pre-incubation
[2] = test system: Phosphorylation of ERK1/2 in MIA PaCa-2 cells; assay: Phospho-ERK1/2 MSD assay in MIA PaCa-2 cells; assay type: cell-based; settings: Homo sapiens, MIA PaCa-2, 2 h, read-out: p-ERK IC50 (2 h; MIA PaCa-2), 2 h compound treatment
Method in brief: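 In the procedure, cells were plated a day ahead at 25,000 per well. Next, a dilution series of compound in growth medium was added for 2 or 4 h. EGF (10 ng/mL) stimulation for 10 min preceded washing and RIPA lysis. Lysate phospho-ERK1/2 was read by MSD, with IC50 derived by 4-parameter logistic analysis.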

Sequence of GDP-bound KRAS protein (aa 1-169), containing both G12C and C118A amino acid substitutions (P01116 1-169 isoform P01116-2 G12C/C118A): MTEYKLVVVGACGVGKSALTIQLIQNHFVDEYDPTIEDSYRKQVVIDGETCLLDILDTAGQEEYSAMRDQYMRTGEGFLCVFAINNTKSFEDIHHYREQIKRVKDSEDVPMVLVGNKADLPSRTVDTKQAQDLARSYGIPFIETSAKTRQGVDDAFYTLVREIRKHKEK

Structure (SMILES)	Coupled exchange IC50 (5 min) [1]	IC50 [2] [nM]
C=CC(=O)N1CCN(c2nc(=O)n(-c3ccccc3C3(C)CC3)c3nc(-c4ccccc4F)c(Cl)cc23)[C@@H](C)C1 [Example 54-99, 6-chloro-7-(2-fluorophenyl)-1-(2-(1-methylcyclopropyl)phenyl)-4-((2S)-2-methyl-4-(2-propenoyl)-1-piperazinyl) pyrido[2,3-d]pyrimidin-2(1H)-one]	0.153 | nda μM	294
C=CC(=O)N1CCN(c2nc(=O)n(-c3ncccc3CC(C)C)c3nc(-c4c(O)cccc4F)c(Cl)cc23)[C@@H](C)C1 [Example 54-101, 6-chloro-7-(2-fluoro-6-hydroxyphenyl)-4-((2S)-2-methyl-4-(2-propenoyl)-1-piperazinyl)-1-(3-(2-methylpropyl)-2-pyridinyl) pyrido[2,3-d]pyrimidin-2(1H)-one]	0.162 | nda μM	157
C=CC(=O)N1CCN(c2nc(=O)n(-c3ncccc3CC(C)C)c3nc(-c4ccccc4F)c(Cl)cc23)[C@@H](C)C1 [Example 54-102, 6-chloro-7-(2-fluorophenyl)-4-((2S)-2-methyl-4-(2-propenoyl)-1-piperazinyl)-1-(3-(2-methylpropyl)-2-pyridinyl) pyrido[2,3-d]pyrimidin-2(1H)-one]	0.161 | nda μM	176
C=CC(=O)N1CCN(c2nc(=O)n(-c3c(C(C)C)cccc3N(C)C)c3nc(-c4ccccc4F)c(Cl)cc23)[C@@H](C)C1 [Example 54-104, 6-chloro-1-(2-(dimethyl-amino)-6-(2-propanyl)phenyl)-7-(2-fluorophenyl)-4-((2S)-2-methyl-4-(2-propenoyl)-1-piperazinyl) pyrido[2,3-d]pyrimidin-2(1H)-one]	0.09 | nda μM	70
C=CC(=O)N1CCN(c2nc(=O)n(-c3c(C)cc(OC)nc3C(C)C)c3nc(-c4ccccc4F)c(Cl)cc23)[C@@H](C)C1 [Example 54-105, 6-chloro-7-(2-fluorophenyl)-1-(6-methoxy-4-methyl-2-(2-propanyl)-3-pyridinyl)-4-((2S)-2-methyl-4-(2-propenoyl)-1-piperazinyl) pyrido[2,3-d]pyrimidin-2(1H)-one]	0.07 | nda μM	89
C=CC(=O)N1CCN(c2nc(=O)n(-c3c(OC)ncnc3C(C)C)c3nc(-c4ccccc4F)c(Cl)cc23)[C@@H](C)C1 [Example 54-107, 6-chloro-7-(2-fluorophenyl)-1-(4-methoxy-6-(2-propanyl)-5-pyrimidinyl)-4-((2S)-2-methyl-4-(2-propenoyl)-1-piperazinyl) pyrido[2,3-d]pyrimidin-2(1H)-one]	0.159 | nda μM	99
C=CC(=O)N1CCN(c2nc(=O)n(-c3c(C(C)C)nc[nH]c3=O)c3nc(-c4ccccc4F)c(Cl)cc23)[C@@H](C)C1 [Example 54-108, 6-chloro-7-(2-fluorophenyl)-4-((2S)-2-methyl-4-(2-propenoyl)-1-piperazinyl)-1-(6-oxo-4-(2-propanyl)-1,6-dihydro-5-pyrimidinyl) pyrido[2,3-d]pyrimidin-2(1H)-one]	0.434 | nda μM	3770
C=CC(=O)N1CCN(c2nc(=O)n(-c3cncnc3C(C)(C)C)c3nc(-c4ccccc4F)c(Cl)cc23)[C@@H](C)C1 [Example 54-110, 6-chloro-7-(2-fluorophenyl)-1-(4-(2-methyl-2-propanyl)-5-pyrimidinyl)-4-((2S)-2-methyl-4-(2-propenoyl)-1-piperazinyl) pyrido[2,3-d]pyrimidin-2(1H)-one]	0.404 | nda μM	408
C=CC(=O)N1CCN(c2nc(=O)n(-c3n[nH]cc3C(C)C)c3nc(-c4ccccc4F)c(Cl)cc23)[C@@H](C)C1 [Example 54-111, 6-chloro-7-(2-fluorophenyl)-4-((2S)-2-methyl-4-(2-propenoyl)-1-piperazinyl)-1-(4-(2-propanyl)-1H-pyrazol-3-yl)pyrido[2,3-d]pyrimidin-2(1H)-one]	0.417 | nda μM	791
C=CC(=O)N1CCN(c2nc(=O)n(-c3cccnc3C(C)(C)C)c3nc(-c4ccccc4F)c(Cl)cc23)[C@@H](C)C1 [Example 54-112, 6-chloro-7-(2-fluorophenyl)-1-(2-(2-methyl-2-propanyl)-3-pyridinyl)-4-((2S)-2-methyl-4-(2-propenoyl)-1-piperazinyl) pyrido[2,3-d]pyrimidin-2(1H)-one]	0.084 | nda μM	222
C=CC(=O)N1CCN(c2nc(=O)n(-c3c(C)noc3C(C)C)c3nc(-c4c(O)cccc4F)c(Cl)cc23)[C@@H](C)C1 [Example 55-1, 6-Chloro-7-(2-fluoro-6-hydroxyphenyl)-1-(3-methyl-5-(2-propanyl)-1,2-oxazol-4-yl)-4-((2S)-2-methyl-4-(2-propenoyl)-1-piperazinyl)pyrido[2,3-d]pyrimidin-2(1H)-one]	0.124 | nda μM	226
C=CC(=O)N1CCN(c2nc(=O)n(-c3c(OC)ncnc3OC)c3nc(-c4c(O)cccc4F)c(Cl)cc23)[C@@H](C)C1 [Example 55-3, 6-chloro-1-(4,6-dimethoxy-5-pyrimidinyl)-7-(2-fluoro-6-hydroxyphenyl)-4-((2S)-methyl-4-(2-propenoyl)-1-piperazinyl)pyrido[2,3-d]pyrimidin-2(1H)-one]	0.966 | nda μM	918
C=CC(=O)N1CCN(c2nc(=O)n(-c3c(C)nc(C)nc3C(C)C)c3nc(-c4c(O)cccc4F)c(Cl)cc23)[C@@H](C)C1 [Example 55-4, 6-chloro-1-(2,4-dimethyl-6-(2-propanyl)-5-pyrimidinyl)-7-(2-fluoro-6-hydroxyphenyl)-4-((2S)-2-methyl-4-(2-propenoyl)-1-piperazinyl)pyrido[2,3-d]pyrimidin-2(1H)-one]	0.057 | nda μM	80
C=CC(=O)N1CCN(c2nc(=O)n(-c3c(C(C)C)nc(C)nc3C(C)C)c3nc(-c4ccccc4F)c(Cl)cc23)[C@@H](C)C1 [Example 55-5, 6-chloro-7-(2-fluorophenyl)-1-(2-methyl-4,6-di(2-propanyl)-5-pyrimidinyl)-4-((2S)-2-methyl-4-(2-propenoyl)-1-piperazinyl)pyrido[2,3-d]pyrimidin-2(1H)-one]	0.045 | nda μM	31
C=CC(=O)N1CCN(c2nc(=O)n(-c3ccccc3CC(F)(F)F)c3nc(-c4c(O)cccc4F)c(Cl)cc23)[C@@H](C)C1 [Example 55-6, 6-chloro-7-(2-fluoro-6-hydroxyphenyl)-4-((2S)-2-methyl-4-(2-propenoyl)-1-piperazinyl)-1-(2-(2,2,2-trifluoroethyl)phenyl)pyrido[2,3-d]pyrimidin-2(1H)-one]	0.318 | nda μM	317
C=CC(=O)N1CCN(c2nc(=O)n(-c3c(C)cccc3CC)c3nc(-c4ccccc4F)c(Cl)cc23)[C@@H](C)C1 [Example 55-9, 6-chloro-1-(2-ethyl-6-methylphenyl)-7-(2-fluorophenyl)-4-((2S)-2-methyl-4-(2-propenoyl)-1-piperazinyl)pyrido[2,3-d]pyrimidin-2(1H)-one]	0.24 | nda μM	214
